This assay has as its system CD44v3 in MDA-MB-231 cells. Kind of assay: Flow cytometry, plasma membrane CD44v3. Type of assay: cell-based. The conditions noted are these: MDA-MB-231, flow cytometry. The text has this: The CD44v3- and CD44v6-containing isoforms expressing respectively exon 8 and 11(Fig. 1A) can interact with growth factor receptors. Using COS-7 cells with low CD44 and TrkA expression (Supplementary Fig. 1A-D), we differentially expressed TrkA and CD44s or a CD44 variant, either CD44v3 or CD44v6 (Fig. 1B, supplementary Fig. 2). […] Additionally, we evaluated the expression of TrkA and CD44v3 at the membrane level or in cells by immunofluorescence in MDA-MB-231 cells.
Supplementary file 13046_2022_2314_MOESM3_ESM.pdf: Additional file 3: Supplementary Figure 1. Validation of the ectopic expression of CD44 and/or TrkA in COS-7 cells. The expression of all CD44 isoforms (A), CD44 variant 3 (B), CD44 variant 6 (C) and TrkA ([…]; D) was evaluated by RT–qPCR (normalized using PUM-1). No expression of CD44, CD44 variants [3 or 6] or TrkA was detected in COS-7 cells (A-D) compared with that in cells transfected with the expression plasmid carrying each protein. […] Quantification of the PLA results was performed using ImageJ software (30 randomly chosen fields per condition of three different experiments). […] CD44v3 and CD44v6 levels at the plasma membrane were assessed by flow cytometry (A-D). The plasma membrane and total TrkA and CD44v3 levels were also quantified by confocal microscopy (E-H). […] The CD44v3/NGF interaction was evaluated using microscale thermophoresis (MST). […]
On the technique in general: Flow cytometry measures light scatter and fluorescence of single cells or particles in a stream.

Take “NGF: recombinant human β-NGF (Alomone Labs, Israel)”: the “increase of plasma membrane CD44v3” value (CD44v3-APC, histogram with No stim., NGF (5 min), NGF (30 min)) is on record as 33%. In addition, the “plasma membrane level of CD44v3 (in words)” value (NGF stimulation) is “increased the plasma membrane level of CD44v3”.

These data come from PMC8962522, “Direct interaction of TrkA/CD44v3 is essential for NGF-promoted aggressiveness of breast cancer cells” (Journal of Experimental & Clinical Cancer Research : CR, 2022).
